In patent publication US9320810B2, “HMGN2 peptides and related molecules that selectively home to tumor blood vessels and tumor cells” (Sanford-Burnham Medical Research Institute, priority 2002, dated 2016):
Where no end group is shown, it is not given here.

Experiments:
[1] = tested on: HL-60 cells; assay: Phage binding to cultured HL-60 cells in vitro; type: cell-based, human; conditions: phage-displayed HMGN1 exon 3 sequence
Experimental: (§1) In particular, about 1000 times more SEQ ID NO:5-displaying phage than non-recombinant T7 phage bound to cultured HL-60 or MDA-MB-435 cells in vitro. Similarly, SEQ ID NO:5-displaying also bound cell suspensions prepared from HL-60 tumors with a 1000-fold specificity relative to control T7 phage.
The phage binding assay was performed essentially as follows. Attachment of phage to cells was quantified by incubating 1×10^8 pfu of phage displaying SEQ ID NO: 9 for 60 minutes with 1×10^6 HL-60 cells at 4° C. in Tris-buffered saline with 1 mM Ca^+2 and 1 mM MgCl2. Bound phage were rescued after four washes with phosphate-buffered saline by adding 1 ml of bacteria for 7 minutes at room temperature. Bound phage were quantified by plating and counting pfu.
Binding of SEQ ID NO: 9-displaying phage to tumor cells was inhibited by free SEQ ID NO: 9 peptide in a dose dependent fashion. […] In contrast, background binding of non-recombinant phage was unaffected by free peptide. Specificity of cell binding by peptide SEQ ID NO: 9 was further confirmed by comparing HL-60 cell binding of phage expressing the HMGN2 exon 3 sequence PQRRSARLSA (SEQ ID NO: 11) to binding with phage expressing the homologous HMGN1 exon 3 sequence PKRRSARLSA (SEQ ID NO: 12).

[2] = tested on: mitochondrial membranes; conditions: cited from earlier work
[3] = tested on: human bone marrow mononuclear cells; assay: Flow cytometry of fluorescein-labeled peptide binding to human bone marrow mononuclear cells; type: cell-based; conditions: FIG. 4, fluorescent peptide
Experimental: Fluorescein-labeled SEQ ID NO: 9 or control peptide SEQ ID NO: 13 (2 μM) were incubated with gradient-depleted bone marrow cells for one hour at 4° C. and analyzed in a flow cytometer. […] The SEQ ID NO: 9-positive cells were the size of lymphocytes, agranular, CD45-positive and mostly CD34-negative, a marker profile similar to that of the lineage-depleted murine bone marrow cells used in the in vitro phage selection.
Flow cytometry was performed as follows. Human bone marrow specimens represented excess material from samples collected for diagnostic purposes from adults with hematological malignancies following informed consent. A total of 2 ml of bone marrow was aspirated from the posterior iliac crest and stored in a citrate anticoagulant. Mononuclear cells were isolated by gradient centrifugation (Ficoll-Paque PLUS; Amersham Pharmacia Biotech; Uppsala, Sweden) and incubated in RPMI-1640 media supplemented with 10% FBS for two hours at 37° C. Cells subsequently were transferred to 4° C. and incubated with 1-2 μM fluorescein-conjugated peptide for 45 minutes before staining with PerCP- or PE-conjugated CD34 and CD45 antibodies (Beckton Dickinson Biosciences; San Jose, Calif.) for 30 minutes. Samples were analyzed with either a FACSCalibur or LSR flow cytometer (Beckton Dickinson Biosciences); 100,000 events were collected.

[4] = tested on: HL-60 xenograft tumors; assay: Tissue localization of intravenously injected fluorescein-conjugated peptide, HL-60 xenograft mice; type: in vivo, mouse; conditions: tail vein
Experimental: To study peptide localization, fluorescein-conjugated SEQ ID NO: 9 or ARALPSQRSR (SEQ ID NO: 13) was injected into the tail vein of mice bearing HL-60 or MDA-MB-435 xenografts. Peptide injection was followed 10 minutes later by injection of biotinylated tomato lectin, a marker of the vasculature. After another five minutes, mice were perfused through the heart with fixative solution, and the organs dissected, sectioned and stained with streptavidin-AlexaFluor 594. Slides were counter-stained with DAPI and examined under an inverted fluorescent microscope.
As shown in FIGS. 3A and G-J, fluorescence predominantly localized to nuclei, with most of the tumor cells containing fluorescence positioned close to blood vessels. […] In some microscopic fields, SEQ ID NO: 9 fluorescence essentially was limited to the endothelial cells, clearly illustrating the expression of peptide SEQ ID NO: 9 within endothelial cells and their nuclei (see FIG. 3F).
Histological analyses were performed as follows. […] Biotin-conjugated lectin was detected with streptavidin-Alexa 594 (Molecular Probes; Eugene, Oreg.); the slides were mounted with Vectashield-DAPI (Vector Laboratories; Burlingame, Calif.), and examined under an inverted fluorescent microscope.

[5] = tested on: primary cells obtained from HL-60 xenograft tumors; assay: Phage binding to primary cells obtained from HL-60 xenograft tumors; type: cell-based, human; conditions: phage-displayed
From the text: as §1
Phage displaying a set of sequences corresponding to fragments of the amino-terminal portion of HMGN2 (SEQ ID NO: 5) were constructed to localize the region responsible for cell binding and in vivo homing. Fragments were designed to follow the exon/intron boundaries of the HMGN2 gene. Inserts encoding the indicated fragments were amplified from the full length HMGN2 phage clone by PCR, purified, digested and directionally cloned into the T7 415-1 and 10-3 vectors. Phage were packaged, amplified and sequenced according to the manufacturer's instructions. Phage preparations were then tested for binding to primary cells obtained from HL-60 xenograft tumors. After a 1 hour incubation at 4° C., cells were washed, and bound phage quantified. […] Furthermore, phage displaying the N-terminal portion of the active fragment SEQ ID NO: 9, which corresponds to exon 3 of the HMGN2 gene, were prepared. These phage expressing the sequence PQRRSARLSA (SEQ ID NO: 11) bound to tumor cells 90-fold more than non-recombinant phage.

PKRRSARLSA [SEQ ID NO: 12]
reduction of HL-60 cell binding relative to HMGN2 phage expressing SEQ ID NO: 11 [1]: 90%

D(KLAKLAK)2: antimicrobial, pro-apoptotic peptide
concentration inducing marked mitochondrial swelling [2]: 10 µM

ARALPSQRSR (not fully specified (N-terminus); also: fluorescein label) [SEQ ID NO: 13, fluorescein-labeled scrambled exon 3 control peptide]
number of cells in lower right quadrant (FACS) [3]: 1 | percentage of cells in lower right quadrant (FACS) [3]: 0.0 | fluorescence in tumor tissue ([4]; fluorescein-conjugated peptide, about 15 minutes circulation): essentially undetectable in other tissues, including the HL-60 tumors | fluorescence in kidneys ([4]; fluorescein-labeled peptide, non-specific uptake): diffuse fluorescence accumulated in proximal tubules of kidneys

PQRRSARLSA [SEQ ID NO: 11]
binding to tumor cells relative to non-recombinant phage [5]: 90 fold
